One assay deals with CsupPR4/CsupOrco. Kind of assay: Two-electrode voltage clamp recording from Xenopus oocytes coexpressing CsupPR4/CsupOrco. The class given is cell-based, Chilo suppressalis. The text has this: (§1) The ORFs encoding CsupPRs were amplified and cloned into pT7Ts vector using specific primers (Supplementary Table S1). The cRNAs of all CsupPRs were synthesized using mMESSAGE Mmachine T7 kit (Ambion, Austin, TX).
(§2) The entire coding region of each CsupOR was sub-cloned into the XhoI/NotI sites of pT7Ts vector (Invitrogen) (Kozak sequence added before the cutting site in forward primer). The cRNAs of all CsupPRs were synthesized using mMESSAGE Mmachine T7 kit (Ambion, Austin, TX).
(§3) Electrophysiological recordings were performed according to previously reported protocols. Mature healthy oocytes (stage V–VII) (Nasco, Salida, California) were treated with collagenase I(GIBCO, Carlsbad, CA) in washing buffer (96 mM NaCl, 2 mM KCl, 5 mM MgCl2, and 5 mM HEPES [pH = 7.6]) for about 1 h at room temperature. […]
(§4) Whole-cell currents were recorded from the injected Xenopus oocytes with a two-electrode voltage clamp. Odorant induced currents were recorded with an OC-725C oocyte clamp (Warner Instruments, Hamden, CT) at a holding potential of […]. […]
(§5) Data acquisition and analyses were carried out with Digidata 1440A and pCLAMP 10.2 software (Axon Instruments Inc., Union City, CA). Statistical comparison of responses of oocytes to the tested ligands and dose-response data were analysed by GraphPad Prism 5.0 (GraphPad Software Inc., San Diego, CA). […]

In the next assay the test system is CsupPR6/CsupOrco. Kind of assay: Two-electrode voltage clamp recording from Xenopus oocytes coexpressing CsupPR6/CsupOrco. Type of assay: cell-based, Chilo suppressalis. Particulars: ligand 10^−4 mol/L; for Effect of PBPs on the response of PR6: each of the four CsupPBPs versus DMSO alone.
Description: as §1, §2
(§6) Electrophysiological recordings were performed according to previously reported protocols. Mature healthy oocytes (stage V–VII) (Nasco, Salida, California) were treated with collagenase I(GIBCO, Carlsbad, CA) in washing buffer (96 mM NaCl, 2 mM KCl, 5 mM MgCl2, and 5 mM HEPES [pH = 7.6]) for about 1 h at room temperature. After being cultured overnight at 18 °C, oocytes were microinjected with 27.6 ng CsupORs cRNA and 27.6 ng CsupOrco cRNA. After injection, oocytes were incubated for 4–7 days at 18 °C in 1X Ringer’s solution (96 mM NaCl, 2 mM KCl, 5 mM MgCl2, 0.8 mM CaCl2, and 5 mM HEPES [pH = 7.6]) supplemented with 5% dialysed horse serum, […].
(§7) Whole-cell currents were recorded from the injected Xenopus oocytes with a two-electrode voltage clamp. Odorant induced currents were recorded with an OC-725C oocyte clamp (Warner Instruments, Hamden, CT) at a holding potential of […]. All experiments on PR responses were performed in six replicates, those involving interactions with PBPs in four replicates.
(§8) Data acquisition and analyses were carried out with Digidata 1440A and pCLAMP 10.2 software (Axon Instruments Inc., Union City, CA). Statistical comparison of responses of oocytes to the tested ligands and dose-response data were analysed by GraphPad Prism 5.0 (GraphPad Software Inc., San Diego, CA).
(§9) Tested pheromone components and analogs were purchased from Nimrod Inc (Changzhou, China, purify 96%). they were dissolved in dimethyl sulfoxide (DMSO) to 1 M Stock solutions and stored at −20 °C. Before testing, the stock solutions were diluted with 1 X Ringer’s buffer (96 mM NaCl, 2 mM KCl, 5 mM MgCl2, 0.8 mM CaCl2 and 5 mM HEPES [pH = 7.6]).

For another assay, the system named is CsupPR2/CsupOrco. Kind of assay: Two-electrode voltage clamp recording from Xenopus oocytes coexpressing CsupPR2/CsupOrco. The class given is cell-based, Chilo suppressalis.
Description: as §1, §2, §6, §7, §8, §9

The subject of another assay is CsupPR1/CsupOrco. Kind of assay: Two-electrode voltage clamp recording from Xenopus oocytes coexpressing CsupPR1/CsupOrco. Type of assay: cell-based, Chilo suppressalis. The settings on record: ligand 10^−4 mol/L, each of the four CsupPBPs versus DMSO alone.
Description: as §1, §2, §3, §4, §5
In general terms: In two-electrode clamp one electrode senses voltage and the other passes current.

The next assay addresses T1, CsupPBP3 (Chilo suppressalis, UniProt F6K0S3).
T1 sequence (F6K0S3 22-166): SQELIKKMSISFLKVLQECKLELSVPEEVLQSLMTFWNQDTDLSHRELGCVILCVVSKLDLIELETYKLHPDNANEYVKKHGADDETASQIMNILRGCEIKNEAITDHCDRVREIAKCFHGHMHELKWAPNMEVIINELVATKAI
Kind of assay: Fluorescence binding assay (1-NPN titration and competitive displacement), CsupPBP3. Particulars: 2 μM protein in 50 mM Tris-HCl titrated with 1-NPN, triplicates. As to the method:
In order to measure the affinity of CsupPBP1–4 to the fluorescent probe N-phenyl-1-naphthylamine (1-NPN), a 2 μM solution of each CsupPBP in 50 mM Tris-HCl buffer was titrated with 1 mM 1-NPN in methanol to final concentrations of 2–16 μM. The affinities of CsupPBP1–4 to other ligands were measured in competitive binding assays, where a 2 μM solution of both CsupPBPs and 1-NPN was titrated with 1 mM methanol solutions of each lignd to final concentrations of 0.2–1.6 μM. The Prism software was used to analyse the data and plot the binding curves. The ability of ligand to compete with 1-NPN was measured in competitive binding assays, where a mixture of the protein and 1-NPN, both at the concentration of 2 μM were titrated with 0.1 mM or 1 mM solutions of each ligand to the final concentrations reported in the figures. Fluorescence intensities are reported as percent of the values measured in the absence of competitors. All experiments were performed in triplicates and mean values and standard errors are reported. Binding constants of competitors were calculated from the corresponding IC50 values using the equation: KD = [IC50]/1 + [1-NPN]/K1-NPN, [1-NPN] being the free concentration of 1-NPN and K1-NPN being the dissociation constant of the complex Protein/1-NPN.

Where [1] appears, read: ligand 10^−4 mol/L, each of the four CsupPBPs versus receptor alone.

SMILES strings stand for the structures. “And” between values parts separate entries of the source, which are not always exact repeats. Identical values can stand only once.

In the case of `CCCCCC/C=C\CCCCCCCC=O` [Z9–16:Ald, (Z)-9-hexadecenal], the “Inward current response of PR4” value in the assay on CsupPR4/CsupOrco (ligand 0.1 mM, no PBP, n = 6) is “specifically tuned”.
On to `CCCC/C=C\CCCCCCCCO` [Z9–14:OH], for which, in the assay with CsupPR4/CsupOrco (setting [1]), the “Effect of PBPs on the response of PR4” value is “inhibitory effect”. Further, the figures for the “Effect of PBPs on the response of PR6” value with CsupPR6/CsupOrco and in the assay with CsupPR6/CsupOrco (listed as 4) were “inhibitory effect” and “reduction of the signal”, respectively. Also, the “Effect of PBPs on the response of PR2” value in the assay with CsupPR2/CsupOrco (setting [1]) is “inhibitory effect”. Further, in the assay on CsupPR1/CsupOrco, the “Effect of PBPs on the response of PR1” value is “inhibitory effect”.
Broadly, the Kd is the free concentration of one partner at which half of the binding sites on the other are occupied at equilibrium, for simple one-to-one binding. Low values mean tighter binding, high ones weaker binding. Consider `c1ccc(Nc2cccc3ccccc23)cc1` [1-NPN, N-phenyl-1-naphthylamine], for which, at CsupPBP3, the dissociation constant (Kd) was ~3 µM and 3.1 µM.
On to `CCCC/C=C\CCCCCCCCCC=O` [Z11–16:Ald, (Z)-11-hexadecenal], for which the “Response of PR6 in the presence of PBP4 compared with other PBPs” value in the assay with CsupPR6/CsupOrco (PBP4) is “more strongly activated”. Also, the “Effect of PBPs on the response of PR6” value with CsupPR6/CsupOrco is “increased”. In addition, in the assay with CsupPR2/CsupOrco (dose-response with versus without PBP1), the “Increase in sensitivity (EC50) of PR2 in the presence of PBP1” value is “to minor extents”. Also, in the assay with CsupPR2/CsupOrco (dose-response with versus without PBP2), the “Increase in sensitivity (EC50) of PR2 in the presence of PBP2” value is on record as “more than one order of magnitude”. In addition, in the assay with CsupPR2/CsupOrco (dose-response with versus without PBP3), the “Increase in sensitivity (EC50) of PR2 in the presence of PBP3” value is “to minor extents”. Further, the “Change in sensitivity (EC50) of PR2 in the presence of PBP4” value in the assay on CsupPR2/CsupOrco (dose-response with versus without PBP4) was “not affected”.

Source of the values: PMC4550830, “Pheromone binding proteins enhance the sensitivity of olfactory receptors to sex pheromones in Chilo suppressalis” (Scientific Reports, 2015).
